Test system: Recombinant mouse PD-L1
Assay: Rescue of mouse splenocyte proliferation in the presence of recombinant PD-L1 (CFSE proliferation assay)
Type: cell-based
Conditions: compound at 100 nM; anti-CD3/CD28 stimulated mouse splenocytes + PD-L1; 72 h; stimulated splenocyte proliferation normalised as 100%; read-out: Percent rescue of splenocyte proliferation (@100 nM)
Description: Rescue of Mouse Splenocyte Proliferation in the Presence of Recombinant PD-L1
Recombinant mouse PD-L1 (rm-PDL-1, cat no: 1019-B7-100; R&D Systems) were used as the source of PD-L1.
Mouse splenocytes harvested from 6-8 weeks old C57 BL6 mice; RPMI 1640 (GIBCO, Cat #11875); DMEM with high glucose (GIBCO, Cat #D6429); Fetal Bovine Serum [Hyclone, Cat #SH30071.03]; Penicillin (10000 unit/mL)-Streptomycin (10,000 μg/mL) Liquid (GIBCO, Cat #15140-122); MEM Sodium Pyruvate solution 100 mM (100×), Liquid (GIBCO, Cat #11360); Nonessential amino acid (GIBCO, Cat #11140); L-Glutamine (GIBCO, Cat #25030); Anti-CD3 antibody (eBiosciences—16-0032); Anti-CD28 antibody (eBiosciences—16-0281); ACK lysis buffer (1 mL) (GIBCO, Cat #-A10492); Histopaque (density-1.083 gm/mL) (SIGMA 10831); Trypan blue solution (SIGMA-T8154); 2 mL Norm Ject Luer Lock syringe-(Sigma 2014-12); 40 μm nylon cell strainer (BD FALCON 35230); Hemacytometer (Bright line-SIGMA Z359629); FACS Buffer (PBS/0.1% BSA): Phosphate Buffered Saline (PBS) pH 7.2 (Hi-Media TS1006) with 0.1% Bovine Serum Albumin (BSA) (SIGMA A7050) and sodium azide (SIGMA 08591); 5 mM stock solution of CFSE: CFSE stock solution was prepared by diluting lyophilized CFSE with 180 μL of Dimethyl sulfoxide (DMSO C2H6SO, SIGMA-D-5879) and aliquoted in to tubes for further use. Working concentrations were titrated from 10 μM to 1 μM. (eBioscience-650850-85); 0.05% Trypsin and 0.02% EDTA (SIGMA 59417C); 96-well format ELISA plates (Corning CLS3390); BD FACS caliber (E6016); Recombinant mouse B7-H1/PDL1 Fc Chimera, (rm-PD-L1 cat no: 1019-B7-100).
Splenocytes harvested in a 50 mL falcon tube by mashing mouse spleen in a 40 μm cell strainer were further treated with 1 mL ACK lysis buffer for 5 min at room temperature. After washing with 9 mL of RPMI complete media, cells were re-suspended in 3 mL of 1× PBS in a 15 mL tube. 3 mL of Histopaque was added carefully to the bottom of the tube without disturbing overlaying splenocyte suspension. After centrifuging at 800×g for 20 min at room temperature, the opaque layer of splenocytes was collected carefully without disturbing/mixing the layers. Splenocytes were washed twice with cold 1× PBS followed by total cell counting using Trypan Blue exclusion method and used further for cell based assays.
Splenocytes were cultured in RPMI complete media (RPMI+10% fetal bovine serum+1 mM sodium pyruvate+10,000 units/mL penicillin and 10,000 μg/mL streptomycin) and maintained in a CO2 incubator with 5% CO2 at 37° C.
CFSE is a dye that passively diffuses into cells and binds to intracellular proteins. 1×10^6 cells/mL of harvested splenocytes were treated with 5 μM of CFSE in pre-warmed 1× PBS/0.1% BSA solution for 10 min at 37° C. Excess CFSE was quenched using 5 volumes of ice-cold culture media to the cells and incubated on ice for 5 min CFSE labelled splenocytes were further given three washes with ice cold complete RPMI media. CFSE labelled 1×10^5 splenocytes added to wells containing either MDA-MB231 cells (1×10^5 cells cultured in high glucose DMEM medium) or recombinant human PDL-1 (100 ng/mL) and compounds of the present invention. Splenocytes were stimulated with anti-mouse CD3 and anti-mouse CD28 antibody (1 μg/mL each) and the culture was further incubated for 72 h at 37° C. with 5% CO2. Cells were harvested and washed thrice with ice cold FACS buffer and % proliferation was analysed by flow cytometry with 488 nm excitation and 521 nm emission filters.
Percent splenocyte proliferation was analysed using cell quest FACS program and percent rescue of splenocyte proliferation by compound was estimated after deduction of % background proliferation value and normalising to % stimulated splenocyte proliferation (positive control) as 100%. […]

SMILES | activity at 0.1 µM
CC(O)[C@H](NC(=O)N[C@@H](CC(N)=O)c1nc(N2CCCCC2)no1)C(=O)O (stereo partly shown) [Compound 15] | 54%
CC(O)[C@H](NC(=O)N[C@@H](CC(N)=O)c1nc(N2CCNCC2)no1)C(=O)O (stereo partly shown) [Compound 16] | 79%
CC(O)[C@H](NC(=O)N[C@@H](CC(N)=O)c1nc(-c2ccccn2)no1)C(=O)O (stereo partly shown) [Compound 20] | 27%
CC(O)[C@H](NC(=O)N[C@@H](CC(N)=O)c1nc(-c2cnccn2)no1)C(=O)O (stereo partly shown) [Compound 21] | 39%
CC(O)[C@H](NC(=O)N[C@@H](CC(N)=O)c1nc(-c2cc(Cl)ccn2)no1)C(=O)O (stereo partly shown) [Compound 22] | 39%
COc1ccnc(-c2noc([C@H](CC(N)=O)NC(=O)N[C@H](C(=O)O)C(C)O)n2)c1 (stereo partly shown) [Compound 23] | 27%
CC(O)[C@H](NC(=O)N[C@@H](CC(N)=O)c1nc(-c2cccc(F)c2)no1)C(=O)O (stereo partly shown) [Compound 24] | 50%
CC(O)[C@H](NC(=O)N[C@@H](CC(N)=O)c1nc(-c2cc(F)ccc2F)no1)C(=O)O (stereo partly shown) [Compound 25] | 42%
Cc1ccc(-c2noc([C@H](CC(N)=O)NC(=O)N[C@H](C(=O)O)C(C)O)n2)o1 (stereo partly shown) [Compound 26] | 24%
CC(O)[C@H](NC(=O)N[C@@H](CC(N)=O)c1nc(N2CCC[C@H](O)C2)no1)C(=O)O (stereo partly shown) [Compound 27] | 6%
O=C(O)CNC(=O)N[C@@H](CC(=O)O)c1nc(N2CCCC2)no1 [Compound 30] | 7%
CC(O)[C@H](NC(=O)N[C@@H](Cc1cn(-c2ccccc2C(=O)O)nn1)c1nc(-c2cnccn2)no1)C(=O)O (stereo partly shown) [Compound 31] | 67%
C#CC[C@H](NC(=O)N[C@H](C(=O)O)C(C)O)c1nc(-c2cnccn2)no1 (stereo partly shown) [Compound 32] | 92%
NCCCC[C@H](NC(=O)N[C@@H](CC(N)=O)c1nc([C@H]2CCCCN2)no1)C(=O)O [Compound 34] | 78%
CC(O)[C@H](NC(=O)N[C@@H](CCC(=O)O)c1nc(-c2cc(F)ccc2F)no1)C(=O)O (stereo partly shown) [Compound 37] | 74%
CC(O)[C@H](NC(=O)N[C@@H](CC(=O)O)c1nc(N2CCCC2)no1)C(=O)O (stereo partly shown) [Compound 38] | 27%
CC(O)[C@H](NC(=O)N[C@@H](CCC(=O)O)c1nc(N2CCCC2)no1)C(=O)O (stereo partly shown) [Compound 39] | 39%
CC(O)[C@H](NC(=O)N[C@@H](CC(N)=O)c1nc(-c2ccc(-c3ccccc3)cc2)no1)C(=O)O (stereo partly shown) [Compound 40] | 79%
CC(O)[C@H](NC(=O)N[C@@H](CC(=O)O)c1nc(-c2cnccn2)no1)C(=O)O (stereo partly shown) [Compound 41] | 73%
CC(O)[C@H](NC(=O)N[C@@H](CC(N)=O)c1nc([C@@H]2COCCN2)no1)C(=O)O (stereo partly shown) [Compound 43] | 92%
CC(O)[C@H](NC(=O)N[C@@H](CC(N)=O)c1nc([C@@H]2CCCCN2)no1)C(=O)O (stereo partly shown) [Compound 44] | 84%
CC(O)[C@H](NC(=O)N[C@@H](CC(N)=O)c1nc([C@@H]2CNCCN2)no1)C(=O)O (stereo partly shown) [Compound 45] | 49%
CC(O)[C@H](NC(=O)N[C@@H](CC(N)=O)c1nc(C2CCCCC2)no1)C(=O)O (stereo partly shown) [Compound 46] | 52%
CC(O)[C@H](NC(=O)N[C@@H](CCC(=O)O)c1nc([C@@H]2COCCN2)no1)C(=O)O (stereo partly shown) [Compound 47] | 57%
CC(O)[C@H](NC(=O)N[C@@H](CC(N)=O)c1nc(C2(N)CCCC2)no1)C(=O)O (stereo partly shown) [Compound 48] | 47%
CC(O)[C@H](NC(=O)N[C@@H](CC(N)=O)c1nc(C2(N)CCCCC2)no1)C(=O)O (stereo partly shown) [Compound 49] | 16%
CC(O)[C@H](NC(=O)N[C@@H](CC(N)=O)c1nc([C@@H]2C[C@@H](O)CN2)no1)C(=O)O (stereo partly shown) [Compound 51] | 44%
C[C@H](NC(=O)N[C@@H](CCCCN)c1nc([C@@H]2CCCN2)no1)C(=O)O [Compound 52] | 46%
